The values below come from publication PMC7381729, “A new class of PentixaFor- and PentixaTher-based theranostic agents with enhanced CXCR4-targeting efficiency” (Theranostics, 2020).

Data set [1] is described as follows: Biodistribution in Daudi xenograft bearing mice. Format: in vivo, mouse. Conditions: female, CB-17 SCID, mouse, iv, total radioactivity, 1h p.i., tracer only, i.v., γ-counter, means ± SD, n=4-5 (68Ga: n=4). As for the experimental part:
(§1) The biodistribution of selected compounds was investigated in Daudi (human B-cell lymphoma) xenograft bearing female CB-17 SCID mice (6-8 weeks, Charles River, Sulzfeld, Germany), [29]. All animal experiments were performed in accordance with current animal welfare regulations in Germany (approval #55.2-1-54-2532-71-13).
(§2) Animals (n=4-5 per group) were injected intravenously with 5-10 MBq (0.08-0.11 nmol peptide per mouse) of the respective ^68Ga- and^ 177Lu-labeled CXCR4 ligands in PBS (100 µL) into the tail vein under isoflurane anesthesia. CXCR4-specificity of binding was determined by coinjection of 50 µg AMD3100 per mouse. The animals were sacrificed 1, 6 and 48h post injection (p.i.), and the organs of interest were dissected. The radioactivity was measured in weighted tissue samples using a γ-counter. Data are expressed in % ID/g tissue (mean ± SD).

The nature of data set [2]: Small animal PET imaging in Daudi xenograft bearing mice. The settings on record: CB17 SCID, mouse, iv, total radioactivity, 90 min p.i., dynamic PET, ROI analysis, n=1 per compound. It is filed as in vivo. How it is done:
Small aminal PET imaging studies were performed using a Siemens Inveon PET scanner. Animals were anesthetized with isoflurane and injected via the tail vein with 10 to 15 MBq (0.1 nmol) of the respective tracer. Dynamic imaging (n=1 per compound) was performed after on-bed injection for 1.5 h, and static images (n=1 per compound) were acquired at 1 h p.i. with an acquisition time of 15 min. Data analysis was performed using the Inveon Research Workplace software. Images were reconstructed using a 3D ordered-subsets expectation maximum (OSEM3D) algorithm without scanner and attenuation correction. Time-activity curves (Figure 4) were obtained by generating isocontour regions of interest (ROI) for the tumor and the heart content (as a surrogate for blood activity), as well as by defining two spherical ROIs (each 23.4 mm^3) in the thigh area (muscle) and areas of homogenous tracer uptake in the liver, followed by plotting of average activity ± SD per volume in these ROIs over time.  Figure 4 Results from small animal PET imaging using [^68Ga]PentixaFor (top row), [^68Ga]DOTA-r-a-ABA-CPCR4 (middle row) and [^68Ga]DOTA-r-a-ABA-iodoCPCR4 (bottom row) in Daudi xenograft bearing CB17 SCID mice. Images on the left (MIP) were obtained by static imaging (1h p.i., n=1), the time activity curves (TAC) on the right were acquired by dynamic PET imaging (0-90 min p.i., n=1).

The subject of data set [3] is Daudi (human B-cell lymphoma) xenograft bearing CB-17 SCID mice. The experiment in a line: Biodistribution in Daudi xenograft bearing mice. It is filed as in vivo, mouse. The settings on record: 1h p.i., tracer only, i.v.; γ-counter; means ± SD, n=4-5 (68Ga: n=4). As for the experimental part:
as §1, §2

Data set [4] can be described thus: Lipophilicity, modified shake-flask method. The settings on record: O/PBS, radiolabeled compound, means ± SD (n=6). Format: physicochemical. How it is done:
The lipophilicity (log PO/PBS) of the ^68Ga- and ^177Lu-labeled compounds in this study was determined via a modified shake-flask method.

Read-outs that look alike come from different tables or passages of the source. Where a SMILES comes first, the peptide text is derived from it. Side-chain parts run from the residue outwards. [ ]: non-standard residue; d: D form. The star is where a group is joined. DOTA = O=C(O)CN1CCN(CC(=O)O)CCN(CC(=O)*)CCN(CC(=O)O)CC1; dTyr(3-I) = N[C@H](Cc1ccc(O)c(I)c1)C(=O)O; 2Nal = N[C@@H](Cc1ccc2ccccc2c1)C(=O)O; dNMeOrn = CN[C@H](CCCN)C(=O)O; 4Abz = Nc1ccc(C(=O)O)cc1

Regarding `C[C@@H](NC(=O)[C@@H](CCCNC(=N)N)NC(=O)CN1CCN(CC(=O)O)CCN(CC(=O)O)CCN(CC(=O)O)CC1)C(=O)Nc1ccc(C(=O)NCCC[C@@H]2C(=O)N[C@@H](CCCNC(=N)N)C(=O)N[C@@H](Cc3ccc4ccccc4c3)C(=O)NCC(=O)N[C@H](Cc3ccc(O)c(I)c3)C(=O)N2C)cc1` [[^68Ga]DOTA-r-a-ABA-iodoCPCR4, metal not drawn] (cyclo([2Nal]G[dTyr(3-I)][dNMeOrn]([4Abz-dA-dR-DOTA])R)), the tissue uptake at 1 h was 3.71 ± 0.28 %ID/g in data set [1] (blood, read-out: Biodistribution blood); 0.65 ± 0.29 %ID/g in data set [1] (colon, read-out: Biodistribution colon); 1.41 ± 0.16 %ID/g in data set [1] (femur, read-out: Biodistribution femur); 1.56 ± 0.2 %ID/g in data set [1] (heart, read-out: Biodistribution heart); 6.25 ± 0.52 %ID/g in data set [1] (kidney, read-out: Biodistribution kidney); 0.49 ± 0.08 %ID/g in data set [1] (muscle, read-out: Biodistribution muscle). Also, the tissue uptake at 1 h was found to be 0.88 ± 0.06 %ID/g in data set [1] (pancreas, read-out: Biodistribution pancreas) and 1.18 ± 0.03 %ID/g in data set [1] (small intestine, read-out: Biodistribution small intestine). In addition, the tissue uptake per volume at 1.5 h in data set [2] (kidney, read-out: Kidney uptake in PET) stood at 4.3 ± 0.4 %ID/mL; in data set [2] (liver, average ± SD per volume in ROI, read-out: Liver uptake in PET), 6.1 ± 0.1 %ID/mL; in data set [2] (tumor (Daudi xenograft), Daudi xenograft, read-out: Tumor accumulation in PET) it was 14.2 ± 1.5 %ID/mL.
As to `C[C@@H](NC(=O)[C@@H](CCCNC(=N)N)NC(=O)CN1CCN(CC(=O)O)CCN(CC(=O)O)CCN(CC(=O)O)CC1)C(=O)Nc1ccc(C(=O)NCCC[C@@H]2C(=O)N[C@@H](CCCNC(=N)N)C(=O)N[C@@H](Cc3ccc4ccccc4c3)C(=O)NCC(=O)N[C@H](Cc3ccc(O)c(I)c3)C(=O)N2C)cc1` [[^68Ga]DOTA-r-a-ABA-iodoCPCR4] [metal not drawn] (cyclo([2Nal]G[dTyr(3-I)][dNMeOrn]([4Abz-dA-dR-DOTA])R)), in data set [3], the Biodistribution adrenals was 1.51 ± 0.18 %iD/g, the Biodistribution liver came to 5.66 ± 0.40 %iD/g, the Biodistribution lung was determined as 2.91 ± 0.28 %iD/g and the Biodistribution spleen came out at 3.02 ± 0.46 %iD/g. Further, in data set [3], the Biodistribution stomach is given as 0.93 ± 0.15 %iD/g and the “Biodistribution tumor (Daudi xenograft)” value is 8.32 ± 1.30 %iD/g. The “log PO/PBS” value in data set [4] is -3.3 ± 0.02.
In data set [3], `C[C@@H](NC(=O)[C@@H](CCCNC(=N)N)NC(=O)CN1CCN(CC(=O)O)CCN(CC(=O)O)CCN(CC(=O)O)CC1)C(=O)Nc1ccc(C(=O)NCCC[C@@H]2C(=O)N[C@@H](CCCNC(=N)N)C(=O)N[C@@H](Cc3ccc4ccccc4c3)C(=O)NCC(=O)N[C@H](Cc3ccc(O)cc3)C(=O)N2C)cc1` [[^68Ga]DOTA-r-a-ABA-CPCR4] [metal not drawn] (cyclo([2Nal]G[dY][dNMeOrn]([4Abz-dA-dR-DOTA])R)) yielded a Biodistribution blood of 3.95 ± 0.89 %iD/g and a Biodistribution liver of 5.63 ± 0.51 %iD/g. Also, in data set [4], the “log PO/PBS” value was -3.6 ± 0.06.
On to `CN1C(=O)[C@@H](Cc2ccc(O)c(I)c2)NC(=O)CNC(=O)[C@H](Cc2ccc3ccccc3c2)NC(=O)[C@H](CCCNC(=N)N)NC(=O)[C@H]1CCCNC(=O)c1ccc(NC(=O)CNC(=O)[C@@H](CCCNC(=N)N)NC(=O)CN2CCN(CC(=O)O)CCN(CC(=O)O)CCN(CC(=O)O)CC2)cc1` [[^68Ga]DOTA-r-G-ABA-iodoCPCR4] [metal not drawn] (cyclo([2Nal]G[dTyr(3-I)][dNMeOrn]([4Abz-Gly-dR-DOTA])R)), for which, in data set [4], the “log PO/PBS” value is on record as -3.0 ± 0.02.
Turning to `CN1C(=O)[C@@H](Cc2ccc(O)c(I)c2)NC(=O)CNC(=O)[C@H](Cc2ccc3ccccc3c2)NC(=O)[C@H](CCCNC(=N)N)NC(=O)[C@H]1CCCNC(=O)c1ccc(NC(=O)CNC(=O)[C@@H](CCCNC(=N)N)NC(=O)CN2CCN(CC(=O)O)CCN(CC(=O)O)CCN(CC(=O)O)CC2)cc1` [[^177Lu]DOTA-r-G-ABA-iodoCPCR4] [metal not drawn] (cyclo([2Nal]G[dTyr(3-I)][dNMeOrn]([4Abz-Gly-dR-DOTA])R)), the “log PO/PBS” value in data set [4] is given as -2.7 ± 0.05.
